Assay results as given in a melting point compilation (Tetko et al.; mined from patent text by program, amines drawn as free bases though some values may be those of a salt).

Structure (SMILES) | melting point
CCOC(=O)CCCCCCCSc1nc(-c2ccccc2)c(-c2ccccc2)[nH]1 | 77 to 79 °C
Cc1nc(-c2ccc(C(F)(F)F)cc2)sc1COc1ccc(/C=C/C(=O)O)cc1 | 226 to 228 °C
CCOC(=O)COc1cc(-c2cc3nccnc3[nH]2)ccc1OC | 183 to 184 °C
COc1ccc(C2c3c(C)c(N4CCC(c5ccc(OC)c(OC)c5)CC4)c(C)c(C)c3OC2(C)C)cc1 (stereo not given) | 154 to 156 °C
Cc1ccccc1-c1nc(-c2ccc(-c3ccccc3)cc2)n[nH]1 | 165 to 167 °C
COC(=O)CCC(NC(c1ccccc1)c1ccccc1)P(O)O (stereo not given) | 162 to 164 °C
COc1ccc(C(=NOCC(=O)O)c2ccc(OC)cc2)cc1 | 105 to 107 °C
O=CN(O)C(CS(=O)(=O)c1ccc(-c2ccc(C(F)(F)F)cc2)cc1)c1cccnc1 (stereo not given) | 186 to 189 °C
C=C1N(CCCC)C(=O)OC12CCN(CCC=C(c1ccc(F)cc1)c1ccc(F)cc1)CC2 | 92 to 93 °C
COc1ccc(N2CCOCC2)c2sc(-c3nc4c([nH]3)CCN(CC(N)=O)CC4)nc12 | 299 to 302 °C
COc1cc(OC)nc(OC)c1 | 47 to 49 °C
NC(=O)CN1C(=O)C[C@@H]2CCCCC[C@@H]21 (relative stereo) | 140 to 142 °C
O=C(O)CCCOC(c1ccccc1)(c1ccccc1)c1ccccc1 | 137 to 140 °C
O[C@@H]1CCCC[C@H]1N=Cc1ccccc1 (relative stereo) | 86 °C
COC(c1cccc2nc3n(c12)CCCN3c1ccc(Cl)cc1Cl)C1CC1 (stereo not given) | 118 to 119 °C
Cc1cc2c(cc1C)C1(CO2)C(=O)Nc2ccccc21 (stereo not given) | 206 to 207 °C
CN(CCCNc1ncc(Cc2ccc(Cl)cc2)c(=O)[nH]1)c1ccccn1 | 65 °C
CCOC(=O)C=CC(=O)c1ccc(Oc2ccccc2)cc1 | 50 to 53.5 °C
CCc1cccc(C)c1S(=O)(=O)c1nn(C(=O)N(CC)CC)cc1Cl | 68 to 72 °C
CCCc1nc2c(N)nc3ccccc3c2n1CCCCC(=O)N1CCOCC1 | 178 to 179 °C
COc1cc(Nc2nccc(-c3ccccc3)n2)cc(OC)c1OC | 187 °C
CN(C)C(=O)Nc1nc2ccccc2s1 | 214 to 216 °C
CCC1(C)CC(S(=O)Cc2c(F)cccc2F)=NO1 (stereo not given) | < 30 °C
Cc1cccc(-c2nc3ccc(OCCCl)cc3n2Cc2ccccc2)c1 | 88 °C

Structure (SMILES) | melting point
COC(=O)c1cc2ccc3[nH]ccc3c2[nH]1 | 183 to 184 °C
COc1nc(Br)cnc1NS(=O)(=O)c1cccc2c(NC(=O)OCc3ccccc3)cccc12 | 226 to 228 °C
COC(=O)CCSc1scnc1C(=O)O | 112 to 116 °C
COC(=O)C1CCc2oc3cc(OC)ccc3c2C1=O (stereo not given) | 173 to 175 °C
CCCCCCC1(c2cc(O)c([C@@H]3CC(=O)C4CC3C4(C)C)c(O)c2)OCCO1 (stereo not given in full) | 185 to 186 °C
CCN1CCC(C(=O)O)(S(=O)(=O)c2ccc(OC)cc2)CC1 | 209 °C
COc1cccc(-c2ccc(-c3ccccc3S(=O)(=O)Nc3onc(C)c3C)cc2)n1 | 132 to 134 °C
O=C(Oc1ccc(F)cc1)[C@H]1CC[C@H](C(F)(F)C(F)(F)C(F)(F)C(F)(F)C(F)(F)C(F)(F)C(F)(F)F)CC1 | 93.6 °C
N#CC(N)=C(C#N)N=Cc1nn(-c2c(Cl)cc(C(F)(F)F)cc2Cl)nc1C(F)(F)F | 218 to 220 °C
CC(C)Oc1cccc(OC(=O)NCc2c(-c3ccccc3)c3cc(Cl)ccc3c(=O)n2C)c1 | 158 to 160 °C
CC(C)Oc1ccnc2[nH]cc(-c3ccnc(N)n3)c12 | > 210 °C
COCCCn1nnnc1-c1ccc(O)c(Br)c1O | 174 to 175 °C
CCCCc1ccc(C(=O)SCC2C(=O)OCC2c2ccccc2)cc1 (stereo not given) | 91 to 93 °C
CCN1CCN=C1c1ccccc1C(=O)c1ccc(Cl)cc1 | 132 to 134 °C
CC(=O)OCCCCCCSCC(=O)c1ccc2c(c1)CC(=O)N2 | 86 to 87 °C
O=C(Nc1cccc(CC(F)(F)F)c1)Nc1ccc2c(c1)COC2=O | 279 to 282 °C
O=C(O)Cn1c(-c2cccc(F)c2)nc2cccnc21 | 243 to 245 °C
O=c1c(-c2ccccc2)c(SCc2ccccc2)oc2cc(O)ccc12 | 215 to 217 °C
COc1cc(C(C)(C)CCCC(=O)OC2CC(C)(C)NC(C)(C)C2)c(O)cc1C(C)(C)CCCC(=O)OC1CC(C)(C)NC(C)(C)C1 | 165 to 168 °C
CCc1nc2c(cnn2CC)c(NC2CCOCC2)c1CNC(=O)c1cc(C)cc(C(=O)NCc2ccc(OC)c(-c3cccc(C=O)c3)c2)c1 | 117 to 119 °C
CCOC(=O)n1c(SC(F)(F)F)cc(-c2ccc(F)cc2)c1-c1ccc(F)cc1 | 54 to 54.5 °C
Cc1ccc(-n2ccc3c(Cl)nnc(Cl)c32)c(C)c1 | 148 to 149 °C
C[C@@H](c1ccc(-c2ccc(F)cn2)cc1)N1CC[C@](CC(C)(C)O)(c2ccccc2)OC1=O | 159 to 160 °C
CCCOc1cc(C)cnc1CCCCNc1ncc(Cc2ccc(C)nc2)c(=O)[nH]1 | 81 to 85 °C

Structure (SMILES) | melting point
CCOC(=O)C(=O)Nc1ccc2c(=O)n3c(nc2c1)C(=Cc1cccc(OC)c1OCC)CC3 | 174 to 177 °C
Nc1ccc(CN2C(=O)C3(COc4cc5c(cc43)OCCO5)c3ccccc32)cn1 (stereo not given) | 117 to 119 °C
O=C(NCCO)c1cccc(-c2cccn3nc(Nc4cccc(C(F)(F)F)c4)nc23)c1 | 215 to 216 °C
CC(=NOCc1ccccc1)c1cccc(S(N)(=O)=O)c1 | 136 to 139 °C
CCOC(=O)c1ccc(NCCOc2cccc3ccccc23)cc1 | 124 to 127 °C
C=C(C)C(=O)Nc1ccc(-n2nc(C(F)(F)F)cc2C(F)(F)F)cc1 | 160 to 162 °C
O=C(NC/C=C\COc1cc(CN2CCCCC2)ccn1)c1cc(-c2ccccc2)on1 | 105 to 106 °C
COc1ccc(C2(C#Cc3ccc(NC(C)=O)cc3)CCC(=O)CC2)cc1OC1CCCC1 | 79 to 80 °C
COC(=O)c1ccccc1NC(=O)Cc1ccccc1OC | 116 to 117 °C
O=C(NCCO)c1cccc(-c2ccc3ccn(Cc4ccc(Cl)cc4Cl)c3c2)c1 | 124 to 125 °C
COc1cc(C2=NNC(=O)Cc3cc4c(cc32)OCO4)ccc1N | 147 to 150 °C
CCCCCCCCCCc1sc(NC(=O)Nc2c(C(C)C)cccc2C(C)C)nc1C | 101 to 108 °C
COCCNc1c([N+](=O)[O-])cnc2ccccc12 | 113 to 115 °C
CCCn1c(-c2ccccc2)cc(=O)c(C(=O)O)c1-c1ccccc1 | 166 to 167 °C
Nc1nc2c(sc(=O)n2CCCCO)c(=O)[nH]1 | 258 to 260 °C
Cn1cc(O)c(=O)c2cc(F)c(F)cc21 | 264 to 265 °C
CC(=O)C1CCC2C3CCC4CC(O)C(N5CCSC(C)(C)C5)CC4(C)C3CCC12C (stereo not given) | 184 to 185 °C
COc1cccc2cc(C)c(C)nc12 | 138 to 139 °C
COc1cc(Nc2nc3c(s2)CCCC3c2ccccc2)ccc1C(=O)NN (stereo not given) | 297 to 299 °C
Cn1nnnc1S(=O)(=O)CCCCBr | 83.5 to 85.5 °C
CCCSc1ccc(-c2coc3ccc(-c4nnc(C)o4)cc23)cc1 | 101 to 102 °C
CCCC1(C)C(=O)NC(=O)N1c1ccc(C)cc1 (stereo not given) | 158 °C
